Experimental data: US5567704A, “R-enatiomerically pure hydroxylated xanthine compounds to treat baldness” (priority 1995, dated 1996)

Tests used:
[1] = endotoxin induced lethality in mice (survival); assay type: in vivo, mouse; conditions: mouse, in vivo, ip; CT1501R alone, no LPS, ten mice, same schedule
Experimental: (§1) Animals were treated with 10 μg/gm of LPS (i.v.) Immediately following the LPS (t=0), 2 hrs after the LPS (t=2) or 4 hrs following LPS (t=4) the mice were treated with their first treatment of CT1501R (100 mg/kg, i.p.). The mice were treated with CT1501R three times per day thereafter, and animal survival was monitored.
(§2) This example illustrates the effect of CT1501R on survival in mice given a lethal dose of endotoxin. We determined if CT1501R protects against endotoxin induced lethality in a murine model. Septic shock was modeled by endotoxin injection of 6-8 week old female Balb/c mice similar to previously published reports (Ashkenazi et al. Proc. Natl. Acad. Sci. U.S.A. 88: 10535-10539, 1991.) under protocols approved by the Animal Use Committee of the Biomembrane Institute, Seattle, Wash. Animals were injected intravaneously (i.v.) with an approximate LD100 dose (10 μg) of Salmonella abortus equi-derived endotoxin (Sigma Chemical Co., L-1887) in phosphate buffered saline (PBS). […] Control mice were injected at the same times with a similar volume of vehicle control (PBS). Survival was followed for at least 72 hours.
(§3) Ten mice were treated each with PBS alone or CT1501R alone on the same schedule as the experimental mice. […] Endotoxin survival data were summarized from a total of six (6) independent experiments. Summary Table 1 details the results of each of the six experiments. In FIG. 5, each time point represents a minimum of three (3) experiments comprising at least twenty (20) mice per group. A probability analysis of the survival data using a Fisher's Exact One Tailed Test is given as Table 3. Significant protection was conferred if CT1501R was administered immediately after the LPS treatment. The cumulative percent survival at 72 hours post LPS treatment was 60% compared to 7% for the LPS-only treated animals (p=<0.0005; Table 3).

[2] = tested on: Balb/c mice given a lethal dose of endotoxin; assay: endotoxin induced lethality in mice (survival); assay type: in vivo, mouse; conditions: for cumulative percent survival: 72 hours post LPS
Experimental: as §1, §2, §3

SMILES: C[C@@H](O)CCCCn1c(=O)c2c(ncn2C)n(C)c1=O [CT1501R, (R)-1-(5-hydroxyhexyl)-3,7-dimethylxanthine]
- survival [1]: 100%
- cumulative percent survival ([2]; CT1501R four hours after LPS): 37%
- cumulative percent survival ([2]; CT1501R immediately after LPS): 60%
- cumulative percent survival ([2]; CT1501R two hours after LPS): 55%
- adverse effects ([2]; CT1501R alone, no LPS, ten mice, same schedule): no adverse effects noted
- Survival (Number Surviving/Total) ([2]; Expt. 1, CT-1501R t = 0 Hr post LPS, 24 Hr post LPS): 4/5
- Survival (Number Surviving/Total) ([2]; Expt. 1, CT-1501R t = 0 Hr post LPS, 48 Hr post LPS): 4/5
- Survival (Number Surviving/Total) ([2]; Expt. 1, CT-1501R t = 0 Hr post LPS, 72 Hr post LPS): 4/5
- Survival (Number Surviving/Total) ([2]; Expt. 1, CT-1501R t = 2 Hr post LPS, 24 Hr post LPS): 4/5
- Survival (Number Surviving/Total) ([2]; Expt. 1, CT-1501R t = 2 Hr post LPS, 48 Hr post LPS): 3/5
- Survival (Number Surviving/Total) ([2]; Expt. 1, CT-1501R t = 2 Hr post LPS, 72 Hr post LPS): 3/5
- Survival (Number Surviving/Total) ([2]; Expt. 2, CT-1501R t = 0 Hr post LPS, 24 Hr post LPS): 5/5
- Survival (Number Surviving/Total) ([2]; Expt. 2, CT-1501R t = 0 Hr post LPS, 48 Hr post LPS): 5/5
- Survival (Number Surviving/Total) ([2]; Expt. 2, CT-1501R t = 0 Hr post LPS, 72 Hr post LPS): 5/5
- Survival (Number Surviving/Total) ([2]; Expt. 2, CT-1501R t = 2 Hr post LPS, 24 Hr post LPS): 5/5
- Survival (Number Surviving/Total) ([2]; Expt. 2, CT-1501R t = 2 Hr post LPS, 48 Hr post LPS): 5/5
- Survival (Number Surviving/Total) ([2]; Expt. 2, CT-1501R t = 2 Hr post LPS, 72 Hr post LPS): 5/5
- Survival (Number Surviving/Total) ([2]; Expt. 3, CT-1501R t = 4 Hr post LPS, 24 Hr post LPS): 5/5
- Survival (Number Surviving/Total) ([2]; Expt. 3, CT-1501R t = 4 Hr post LPS, 48 Hr post LPS): 3/5
- Survival (Number Surviving/Total) ([2]; Expt. 3, CT-1501R t = 4 Hr post LPS, 72 Hr post LPS): 3/5
- Survival (Number Surviving/Total) ([2]; Expt. 4, CT-1501R t = 4 Hr post LPS, 24 Hr post LPS): 7/10
- Survival (Number Surviving/Total) ([2]; Expt. 4, CT-1501R t = 4 Hr post LPS, 48 Hr post LPS): 5/10
- Survival (Number Surviving/Total) ([2]; Expt. 4, CT-1501R t = 4 Hr post LPS, 72 Hr post LPS): 5/10
- Survival (Number Surviving/Total) ([2]; Expt. 5, CT-1501R t = 0 Hr post LPS, 24 Hr post LPS): 9/10
- Survival (Number Surviving/Total) ([2]; Expt. 5, CT-1501R t = 0 Hr post LPS, 48 Hr post LPS): 7/10
- Survival (Number Surviving/Total) ([2]; Expt. 5, CT-1501R t = 0 Hr post LPS, 72 Hr post LPS): 3/10
- Survival (Number Surviving/Total) ([2]; Expt. 5, CT-1501R t = 2 Hr post LPS, 24 Hr post LPS): 5/10
- Survival (Number Surviving/Total) ([2]; Expt. 5, CT-1501R t = 2 Hr post LPS, 48 Hr post LPS): 3/10
- Survival (Number Surviving/Total) ([2]; Expt. 5, CT-1501R t = 2 Hr post LPS, 72 Hr post LPS): 3/10
- Survival (Number Surviving/Total) ([2]; Expt. 5, CT-1501R t = 4 Hr post LPS, 24 Hr post LPS): 7/10
- Survival (Number Surviving/Total) ([2]; Expt. 5, CT-1501R t = 4 Hr post LPS, 48 Hr post LPS): 4/10
- Survival (Number Surviving/Total) ([2]; Expt. 5, CT-1501R t = 4 Hr post LPS, 72 Hr post LPS): 2/10
- Survival (Number Surviving/Total) ([2]; Expt. 6, CT-1501R t = 4 Hr post LPS, 24 Hr post LPS): 3/10
- Survival (Number Surviving/Total) ([2]; Expt. 6, CT-1501R t = 4 Hr post LPS, 48 Hr post LPS): 3/10
- Survival (Number Surviving/Total) ([2]; Expt. 6, CT-1501R t = 4 Hr post LPS, 72 Hr post LPS): 3/10
- survival compared with published results of Genentech's bifunctional TNF receptor ([2]; drug simultaneously or two hours after lethal LPS, FIGS. 15 and 16): consistently was better at improving survival than Genentech's TNF receptor
- Cumulative survival (Number Surviving/Total) ([2]; n = 3 expts, CT-1501R t = 0 Hr post LPS, 24 Hr post LPS): 18/20
- Cumulative survival (Number Surviving/Total) ([2]; n = 3 expts, CT-1501R t = 0 Hr post LPS, 48 Hr post LPS): 16/20
- Cumulative survival (Number Surviving/Total) ([2]; n = 3 expts, CT-1501R t = 0 Hr post LPS, 72 Hr post LPS): 12/20
- Cumulative survival (Number Surviving/Total) ([2]; n = 3 expts, CT-1501R t = 2 Hr post LPS, 24 Hr post LPS): 14/20
- Cumulative survival (Number Surviving/Total) ([2]; n = 3 expts, CT-1501R t = 2 Hr post LPS, 48 Hr post LPS): 11/20
- Cumulative survival (Number Surviving/Total) ([2]; n = 3 expts, CT-1501R t = 2 Hr post LPS, 72 Hr post LPS): 11/20
- Cumulative survival (Number Surviving/Total) ([2]; n = 4 expts, CT-1501R t = 4 Hr post LPS, 24 Hr post LPS): 22/35
- Cumulative survival (Number Surviving/Total) ([2]; n = 4 expts, CT-1501R t = 4 Hr post LPS, 48 Hr post LPS): 15/35
- Cumulative survival (Number Surviving/Total) ([2]; n = 4 expts, CT-1501R t = 4 Hr post LPS, 72 Hr post LPS): 13/35
